assay: HPLC quantification of red blood cell MTXPG concentrations in rheumatoid arthritis patients on low-dose MTX therapy, with regression on age, dose, route and RFC-1/GGH genotype; format: in vivo, human; details: multivariate linear regression, route p<0.04
Description: The study was cross-sectional at three investigational sites (The Center of Rheumatology, Albany, N.Y.; Rheumatology Practice, Knoxville, Tenn.; Radiant Research, Daytona Beach, Fla.). To be eligible, patients (≧18 yrs.) had to meet the revised criteria of the American Rheumatism Association for Rheumatoid Arthritis and had to have received low-dose MTX therapy for at least three months. Other medications included low-dose corticosteroids (<10 mg day) and folic acid supplementation for the prevention of side-effects induced by MTX. Local Institutional Review Board approved the study and patient consent was obtained for each patient. Patients' demographics were collected at the time of enrollment in the study. Blood was drawn in EDTA-containing tubes and shipped overnight to Prometheus Laboratories Inc. (San Diego, Calif.) for analysis.
Red blood cell MTXPG concentrations were measured as described previously using an HPLC-fluorometry procedure with a post-column photo-oxidation technique (Dervieux et al., Clin. Chem., 49:1632-1641 (2003)). Results are expressed in nmol/L as either total MTXPG1-5 levels or total long-chain MTXG3-5 levels (i.e., the sum of MTXP3+MTXPG4+MTXPG5 levels).
The statistical analysis consisted of a multivariate linear or logistic regression, with MTXPG levels (i.e., MTXPG1-5, MTXPG3-5) as dependent variables and predictors (i.e., age, weekly MTX dose, route of administration, and RFC-1 and GGH genotypes) as independent variables. For calculating a pharmacogenetic index, the genotypes were dichotomized as homozygous mutants (RFC-1 80A/A and GGH −401T/T; value of 1) versus wild-type or heterozygous (RFC-1 80G/G or 80G/A and GGH −401C/C or −401C/T; value of 0) as appropriate. Group comparisons were performed with the Kruskall-Wallis ANOVA. The likelihood of having MTXPG levels above group median was derived from the logistic regression model. Odds ratio (OR) and probability (P) are given with a 95% confidence interval (CI). Estimates are given with standard error.

Row | SMILES | RBC MTXPG levels after injected MTX compared to oral administration
1 | CN(Cc1cnc2nc(N)nc(N)c2n1)c1ccc(C(=O)N[C@@H](CCC(=O)O)C(=O)O)cc1 [MTX, methotrexate] | higher MTXPG levels

same assay, conditions: unadjusted, Kruskall-Wallis; FIG. 3

Row | SMILES | Change of RBC level with increased pharmacogenetic index (PI, from −1 to 1)
2 | CN(Cc1cnc2nc(N)nc(N)c2n1)c1ccc(C(=O)N[C@@H](CCC(=O)O)C(=O)O)cc1 [MTX, methotrexate] | no significant differences
3 | CN(Cc1cnc2nc(N)nc(N)c2n1)c1ccc(C(=O)NC(CCC(=O)NC(CCC(=O)O)C(=O)O)C(=O)O)cc1 (stereo not drawn) [MTXPG2] | no significant differences
4 | CN(Cc1cnc2nc(N)nc(N)c2n1)c1ccc(C(=O)N[C@@H](CCC(=O)N[C@@H](CCC(=O)N[C@@H](CCC(=O)O)C(=O)O)C(=O)O)C(=O)O)cc1 [MTXPG3] | increased
5 | CN(Cc1cnc2nc(N)nc(N)c2n1)c1ccc(C(=O)N[C@@H](CCC(=O)N[C@@H](CCC(=O)N[C@@H](CCC(=O)N[C@@H](CCC(=O)O)C(=O)O)C(=O)O)C(=O)O)C(=O)O)cc1 [MTXPG4] | increased
6 | CN(Cc1cnc2nc(N)nc(N)c2n1)c1ccc(C(=O)NC(CCC(=O)NC(CCC(=O)NC(CCC(=O)NC(CCC(=O)NC(CCC(=O)O)C(=O)O)C(=O)O)C(=O)O)C(=O)O)C(=O)O)cc1 (stereo not drawn) [MTXPG5] | increased

Reference: patent US7695908B2, “Methods for predicting methotrexate polyglutamate levels using pharmacogenetics” (Prometheus Laboratories Inc., priority 2004, dated 2010)
